Reference: ChEMBL document CHEMBL6121010, “Novel antileukemic compound with sub-micromolar potency against STAT5 addicted myeloid leukemia cells” (Eur J Med Chem, 2025)
Activity calls are given as the source filed them. No cut-off for these calls is given here.

Assays:
KU812 cell line [1] = assay: Antileukemic activity against human KU812 cell line assessed as inhibition of cell growth incubated for 48 hrs by MTT assay; format: functional, cell-based; details: KU812, 48 h
MV4-11 [2] = assay: Antileukemic activity against human MV4-11 cell line assessed as inhibition of cell growth incubated for 48 hrs by MTT assay; format: functional, cell-based; details: MV4-11, 48 h
K562 [3] = assay: Antileukemic activity against human K562 assessed as cell viability incubated for 48 hrs by MTT assay; format: functional, cell-based; details: K562, 48 h
KCL-22 [4] = assay: Antileukemic activity against human KCL-22 assessed as cell viability incubated for 48 hrs by MTT assay; format: functional, cell-based; details: KCL-22, 48 h
MOLM-13 [5] = assay: Antileukemic activity against human MOLM-13 assessed as cell viability incubated for 48 hrs by MTT assay; format: functional, cell-based; details: MOLM-13, 48 h
[6] = Cytotoxicity against human HS-27A assessed as cell viability incubated for 48 hrs by MTT assay; format: toxicity, cell-based; details: HS-27A cells
[7] = Cytotoxicity against Bone marrow cell (unknown origin) assessed as cell viability incubated for 48 hrs by MTT assay; format: toxicity, cell-based; details: bone marrow cells (unknown origin)
K562 [8] = assay: Antiproliferative activity against human K562 cells measured after 72 hrs by MTT assay; format: functional, cell-based
KU812 cell line [9] = assay: Antiproliferative activity against human KU812 cell line measured after 72 hrs by MTT assay; format: functional, cell-based
KCL-22 [10] = assay: Antiproliferative activity against human KCL-22 cells measured after 72 hrs by MTT assay; format: functional, cell-based
MV4-11 [11] = assay: Antiproliferative activity against human MV4-11 cells measured after 72 hrs by MTT assay; format: functional, cell-based
MOLM-13 [12] = assay: Antiproliferative activity against human MOLM-13 cells measured after 72 hrs by MTT assay; format: functional, cell-based
[13] = Potency index, ratio of Pimozide EC50 to test compound EC50 for antileukemic activity against human KU812 cell line assessed as inhibition of cell growth incubated for 48 hrs by MTT assay; format: functional
[14] = Potency index, ratio of Pimozide EC50 to test compound EC50 for antileukemic activity against human K562 cells assessed as inhibition of cell growth incubated for 48 hrs by MTT assay; format: functional
[15] = Potency index, ratio of Pimozide EC50 to test compound EC50 for antileukemic activity against human KCL-22 cells assessed as inhibition of cell growth incubated for 48 hrs by MTT assay; format: functional
MV4-11 [16] = assay: Potency index, ratio of Pimozide EC50 to test compound EC50 for antileukemic activity against human MV4-11 cells assessed as inhibition of cell growth incubated for 48 hrs by MTT assay; format: functional
[17] = Potency index, ratio of Pimozide EC50 to test compound EC50 for antileukemic activity against human MOLM-13 cells assessed as inhibition of cell growth incubated for 48 hrs by MTT assay; format: functional
[18] = molecular target: T1, Signal transducer and activator of transcription 5A (Homo sapiens) (UniProt P42229); assay: Inhibition of STAT5A phosphorylation in human KU812 cell line incubated for 24 hrs by Western blotting analysis; format: cell-based
T1 sequence (whole entry): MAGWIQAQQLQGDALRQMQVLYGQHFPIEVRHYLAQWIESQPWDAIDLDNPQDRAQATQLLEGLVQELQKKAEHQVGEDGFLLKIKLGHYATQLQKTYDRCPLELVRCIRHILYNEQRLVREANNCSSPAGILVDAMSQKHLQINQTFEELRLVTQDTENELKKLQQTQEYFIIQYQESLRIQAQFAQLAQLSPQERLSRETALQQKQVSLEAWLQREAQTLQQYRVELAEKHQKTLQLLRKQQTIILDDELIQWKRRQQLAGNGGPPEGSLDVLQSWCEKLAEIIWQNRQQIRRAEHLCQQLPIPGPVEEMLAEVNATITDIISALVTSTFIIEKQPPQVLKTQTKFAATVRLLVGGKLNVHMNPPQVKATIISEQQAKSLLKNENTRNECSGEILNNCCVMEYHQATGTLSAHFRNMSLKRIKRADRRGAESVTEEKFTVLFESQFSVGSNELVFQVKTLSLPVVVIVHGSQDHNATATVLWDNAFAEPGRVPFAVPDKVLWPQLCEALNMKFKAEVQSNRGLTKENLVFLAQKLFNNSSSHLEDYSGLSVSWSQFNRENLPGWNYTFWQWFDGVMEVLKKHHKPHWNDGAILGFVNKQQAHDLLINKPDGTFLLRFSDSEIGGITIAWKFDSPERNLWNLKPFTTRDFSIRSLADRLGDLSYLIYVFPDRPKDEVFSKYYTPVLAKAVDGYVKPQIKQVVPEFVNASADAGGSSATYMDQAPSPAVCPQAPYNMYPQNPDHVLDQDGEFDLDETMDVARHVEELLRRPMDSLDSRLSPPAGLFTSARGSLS

[19] = molecular target: T2, Signal transducer and activator of transcription 5B (Homo sapiens) (UniProt P51692); assay: Inhibition of STAT5B phosphorylation in human KU812 cell line incubated for 24 hrs by Western blotting analysis; format: cell-based
T2 sequence (whole entry): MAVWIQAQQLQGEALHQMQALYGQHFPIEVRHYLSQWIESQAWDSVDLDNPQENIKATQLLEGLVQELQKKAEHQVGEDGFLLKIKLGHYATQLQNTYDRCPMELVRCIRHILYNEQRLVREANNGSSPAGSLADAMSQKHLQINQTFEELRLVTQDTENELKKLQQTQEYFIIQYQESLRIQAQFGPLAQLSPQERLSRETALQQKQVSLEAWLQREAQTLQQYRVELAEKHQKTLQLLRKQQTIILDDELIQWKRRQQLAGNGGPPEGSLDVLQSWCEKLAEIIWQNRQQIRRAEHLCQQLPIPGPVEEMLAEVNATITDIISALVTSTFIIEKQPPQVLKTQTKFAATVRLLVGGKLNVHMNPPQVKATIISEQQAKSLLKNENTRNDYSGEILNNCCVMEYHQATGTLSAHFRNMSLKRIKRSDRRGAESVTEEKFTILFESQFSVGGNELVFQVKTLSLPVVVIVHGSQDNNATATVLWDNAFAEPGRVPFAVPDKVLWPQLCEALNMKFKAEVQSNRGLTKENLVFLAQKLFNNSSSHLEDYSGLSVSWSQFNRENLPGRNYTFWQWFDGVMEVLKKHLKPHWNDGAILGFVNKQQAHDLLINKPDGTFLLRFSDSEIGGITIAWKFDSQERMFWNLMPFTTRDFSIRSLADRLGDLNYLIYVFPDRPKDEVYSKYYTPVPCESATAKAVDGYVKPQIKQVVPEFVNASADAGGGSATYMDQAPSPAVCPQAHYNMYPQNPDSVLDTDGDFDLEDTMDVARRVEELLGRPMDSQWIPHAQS

[20] = molecular target: T1, Signal transducer and activator of transcription 5A (Homo sapiens); assay: Inhibition of STAT5A phosphorylation in human MV4-11 cells incubated for 24 hrs by Western blotting analysis; format: cell-based
[21] = molecular target: T2, Signal transducer and activator of transcription 5B (Homo sapiens); assay: Inhibition of STAT5B phosphorylation in human MV4-11 cells incubated for 24 hrs by Western blotting analysis; format: cell-based
MV4-11 [22] = assay: Downregulation of STAT5B expression in human MV4-11 cells by Western blot analysis; format: functional, cell-based
KU812 [23] = assay: Downregulation of STAT5B expression in human KU812 cell line by Western blot analysis; format: functional, cell-based
MV4-11 [24] = assay: Downregulation of STAT5A expression in human MV4-11 cells by Western blot analysis; format: functional, cell-based
KU812 [25] = assay: Downregulation of STAT5A expression in human KU812 cell line by Western blot analysis; format: functional, cell-based
BaF3 = assay: Downregulation of STAT5B N642H mutant expression in mouse BaF3 cells incubated for 24 hrs by Western blot analysis; format: functional, cell-based; details: dose <= 5.0 µM
K562-IMA[r] [26] = assay: Antiproliferative activity against human Imatinib-resistant K562 cells assessed as inhibition of cell growth at 100 nM measured after 72 hrs by MTT assay; format: functional, cell-based
[27] = molecular target: T1, Signal transducer and activator of transcription 5A (Homo sapiens); assay: Inhibition of STAT5A phosphorylation in human Imatinib-resistant K562 cells up to 5 uM incubated for 24 hrs by Western blotting analysis; format: cell-based
[28] = molecular target: T2, Signal transducer and activator of transcription 5B (Homo sapiens); assay: Inhibition of STAT5B phosphorylation in human Imatinib-resistant K562 cells up to 5 uM incubated for 24 hrs by Western blotting analysis; format: cell-based
K562-IMA[r] [29] = assay: Downregulation of STAT5A expression in human Imatinib-resistant K562 cells by Western blot analysis; format: functional, cell-based
K562-IMA[r] [30] = assay: Downregulation of STAT5B expression in human Imatinib-resistant K562 cells by Western blot analysis; format: functional, cell-based
KU812 cell line [31] = assay: Antileukemic activity against human KU812 cell line co-cultured with human HS-27A in presence of Imatinib; format: functional, cell-based
MV4-11 [32] = assay: Antileukemic activity against human MV4-11 cells co-cultured with human HS-27A in presence of Imatinib; format: functional, cell-based
KU812 cell line [33] = assay: Antileukemic activity against human KU812 cell line co-cultured with human HS-27A in presence of Ara-c; format: functional, cell-based
MV4-11 [34] = assay: Antileukemic activity against human MV4-11 cells co-cultured with human HS-27A in presence of Ara-c; format: functional, cell-based

CC1(C)CCN(CCOc2ccc3[nH]ccc3c2)c2cccc(-c3cnc(N)nc3)c21
EC50 (KU812 cell line [1]): 600 nM
EC50 (MV4-11 [2]): 300 nM
EC50 (K562 [3]): 800 nM
EC50 (KCL-22 [4]): 500 nM
EC50 (MOLM-13 [5]): 300 nM
EC50 at 48 h [6]: 44100 nM
EC50 at 48 h [7]: 12000 nM
Activity (K562 [8]): Active
Activity (KU812 cell line [9]): Active
Activity (KCL-22 [10]): Active
Activity (MV4-11 [11]): Active
Activity (MOLM-13 [12]): Active
Ratio EC50 [13]: 5
Ratio EC50 [14]: 5
Ratio EC50 [15]: 5
Ratio EC50 (MV4-11 [16]): 5
Ratio EC50 [17]: 5
inhibition [18]: Active
inhibition [19]: Active
inhibition [20]: Active
inhibition [21]: Active
Activity (MV4-11 [22]): Active
Activity (KU812 [23]): Active
Activity (MV4-11 [24]): inactive
Activity (KU812 [25]): inactive
Activity (BaF3): Dose-dependent-effect
Activity (K562-IMA[r] [26]): Active
inhibition [27]: Active
inhibition [28]: Active
Activity (K562-IMA[r] [29]): Active
Activity (K562-IMA[r] [30]): Active
Activity (KU812 cell line [31]): Active
Activity (MV4-11 [32]): Active
Activity (KU812 cell line [33]): Active
Activity (MV4-11 [34]): Active
